This passage reports IC50 results from patent US9303016B2, “Derivatives of aza adamantane and uses thereof” (CONNEXIOS LIFE SCIENCES PVT. LTD., priority 2011, dated 2016).

The experiment addresses T1, human full length HSD11β1 (Homo sapiens, UniProt P28845).
T1 construct: transient expression of human full length HSD11β1 expression vector; host or cells: CHO cells, transient transfection
Kind of experiment: In Vitro HSD11β1 Inhibition Assay. It is filed as cell-based. The following applies: CHO cells transiently expressing human HSD11β1; 200 nM cortisone+500 uM NADPH overnight; cortisone to cortisol by LC/MS-MS; read-out: 11βHSD1 (IC50). The method, boiled down: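 Whole-cell assay in CHO cells transiently transfected with full-length human HSD11β1, re-seeded 24 h after transfection. Cells incubated overnight with 200 nM cortisone plus 500 uM NADPH, with or without inhibitor. Cortisone-to-cortisol conversion measured by LC/MS-MS; IC50 (nM) from an 8-point log concentration-inhibition curve.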

T1 sequence (P28845 whole entry): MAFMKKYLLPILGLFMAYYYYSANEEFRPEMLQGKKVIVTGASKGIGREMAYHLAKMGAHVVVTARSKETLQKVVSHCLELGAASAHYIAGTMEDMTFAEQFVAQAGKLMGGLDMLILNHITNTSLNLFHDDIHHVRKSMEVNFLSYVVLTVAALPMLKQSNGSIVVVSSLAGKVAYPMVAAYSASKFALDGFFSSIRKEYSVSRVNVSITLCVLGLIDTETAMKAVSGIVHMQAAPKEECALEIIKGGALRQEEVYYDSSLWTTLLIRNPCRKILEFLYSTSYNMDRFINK

Broadly, the IC50 is the concentration needed to halve the response being measured. With `COc1ccc2[nH]cc(C(C)CC(=O)N3C4CC5CC3CC(O)(C5)C4)c2c1C` (stereo not shown) [Compound 165, 1-(5-hydroxy-2-azatricyclo[3.3.1.1^3,7]dec-2-yl)-3-(5-methoxy-4-methyl-1H-indol-3-yl)butan-1-one], the half-inhibitory concentration (IC50) was more than 250 nM.

With `Cc1ccc2[nH]cc(C(C)CC(=O)N3C4CC5CC3CC(O)(C5)C4)c2c1Cl` (stereo not shown) [Compound 166, 3-(4-chloro-5-methyl-1H-indol-3-yl)-1-(5-hydroxy-2-azatricyclo[3.3.1.1^3,7]dec-2-yl)butan-1-one], the half-maximal inhibitory concentration (IC50) is less than 100 nM.

As to `CC(CC(=O)N1C2CC3CC1CC(C(C)C(=O)O)(C3)C2)c1c[nH]c2cccc(C3CC3)c12` (stereo not shown) [Compound 167, 2-{2-[3-(4-cyclopropyl-1H-indol-3-yl)butanoyl]-2-azatricyclo[3.3.1.1^3,7]dec-5-yl}propanoic acid], the IC50 was in the range of 200 to 250 nM.

Take `CC(CC(=O)N1C2CC3CC1CC(O)(C3)C2)c1c[nH]c2ccc(Cl)c(Cl)c12` (stereo not shown) [Compound 168, 3-(4,5-dichloro-1H-indol-3-yl)-1-(5-hydroxy-2-azatricyclo[3.3.1.1^3,7]dec-2-yl)butan-1-one]: the IC50 is less than 100 nM.

In the case of `COc1ccc2[nH]cc(C(C)CC(=O)N3C4CC5CC3CC(O)(C5)C4)c2c1C1CC1` (stereo not shown) [Compound 171, 3-(4-cyclopropyl-5-methoxy-1H-indol-3-yl)-1-(5-hydroxy-2-azatricyclo[3.3.1.1^3,7]dec-2-yl)butan-1-one], the IC50 lay within 200 to 250 nM.

Consider `Cc1ccc2[nH]cc(C(C)CC(=O)N3C4CC5CC3CC(F)(C5)C4)c2c1C` (stereo not shown) [Compound 176, 3-(4,5-dimethyl-1H-indol-3-yl)-1-(5-fluoro-2-azatricyclo[3.3.1.1^3,7]dec-2-yl)butan-1-one], for which the IC50 is more than 250 nM.

`CC(CC(=O)N1C2CC3CC1CC(O)(C3)C2)c1c[nH]c2cccc(N3CCCCC3)c12` (stereo not shown) [Compound 180, 1-(5-hydroxy-2-azatricyclo[3.3.1.1^3,7]dec-2-yl)-3-[4-(piperidin-1-yl)-1H-indol-3-yl]butan-1-one]: the IC50 was more than 250 nM.

With `CC(C)Oc1cccc2[nH]cc(C(C)CC(=O)N3C4CC5CC(C4)CC3C5)c12` (stereo not shown) [Compound 181, 1-(2-azatricyclo[3.3.1.1^3,7]dec-2-yl)-3-[4-(propan-2-yloxy)-1H-indol-3-yl]butan-1-one], the concentration for half-maximal inhibition (IC50) is more than 250 nM.

Turning to `CC(C)Oc1cccc2[nH]cc(C(C)CC(=O)N3C4CC5CC3CC(F)(C5)C4)c12` (stereo not shown) [Compound 182, 1-(5-fluoro-2-azatricyclo[3.3.1.1^3,7]dec-2-yl)-3-[4-(propan-2-yloxy)-1H-indol-3-yl]butan-1-one], the half-inhibitory concentration (IC50) lay within 150 to 200 nM.

On to `CC(CC(=O)N1C2CC3CC(C2)CC1C3)c1c[nH]c2cccc(N3CCC(C(=O)O)CC3)c12` (stereo not shown) [Compound 183, 1-{3-[4-(2-azatricyclo[3.3.1.1^3,7]dec-2-yl)-4-oxobutan-2-yl]-1H-indol-4-yl}piperidine-4-carboxylic acid], for which the half-maximal inhibitory concentration (IC50) is more than 250 nM.

For `CC(CC(=O)N1C2CC3CC1CC(C(C)C(=O)O)(C3)C2)c1c[nH]c2cccc(Cl)c12` (stereo not shown) [Compound 186, 2-{2-[3-(4-chloro-1H-indol-3-yl)butanoyl]-2-azatricyclo[3.3.1.1^3,7]dec-5-yl}propanoic acid], the half-inhibitory concentration (IC50) was more than 250 nM.

Take `CC(CC(=O)N1C2CC3CC1CC(O)(C3)C2)c1c[nH]c2cccc(-c3ccsc3)c12` (stereo not shown) [Compound 187, 1-(5-hydroxy-2-azatricyclo[3.3.1.1^3,7]dec-2-yl)-3-[4-(thiophen-3-yl)-1H-indol-3-yl]butan-1-one]: the concentration for half-maximal inhibition (IC50) was 100 to 150 nM.

With `CC(CC(=O)N1C2CC3CC1CC(O)(C3)C2)c1nc2cc(Cl)ccc2s1` (stereo not shown) [Compound 190, 3-(5-chloro-1,3-benzothiazol-2-yl)-1-(5-hydroxy-2-azatricyclo[3.3.1.1^3,7]dec-2-yl)butan-1-one], the IC50 fell in the range of 150 to 200 nM.

Consider `CC(CC(=O)N1C2CC3CC1CC(C#N)(C3)C2)c1nc2cc(Cl)ccc2s1` (stereo not shown) [Compound 191, 2-[3-(5-chloro-1,3-benzothiazol-2-yl)butanoyl]-2-azatricyclo[3.3.1.1^3,7]decane-5-carbonitrile], for which the IC50 was more than 250 nM.

As to `CC(CC(=O)N1C2CC3CC1CC(O)(C3)C2)c1nc2ccc(Cl)cc2s1` (stereo not shown) [Compound 192, 3-(6-chloro-1,3-benzothiazol-2-yl)-1-(5-hydroxy-2-azatricyclo[3.3.1.1^3,7]dec-2-yl)butan-1-one], the IC50 was less than 100 nM.

On to `CC(CC(=O)N1C2CC3CC1CC(C(N)=O)(C3)C2)c1nc2ccc(Cl)cc2s1` (stereo not shown) [Compound 196, 2-[3-(6-chloro-1,3-benzothiazol-2-yl)butanoyl]-2-azatricyclo[3.3.1.1^3,7]decane-5-carboxamide], for which the half-maximal inhibitory concentration (IC50) was more than 250 nM.

Regarding `CC(CC(=O)N1C2CC3CC1CC(O)(C3)C2)c1c[nH]c2ncc(Cl)c(Cl)c12` (stereo not shown) [Compound 197, 3-(4,5-dichloro-1H-pyrrolo[2,3-b]pyridin-3-yl)-1-(5-hydroxy-2-azatricyclo[3.3.1.1^3,7]dec-2-yl)butan-1-one], the IC50 is less than 100 nM.

For the compound `CC(CC(=O)N1C2CC3CC1CC(O)(C3)C2)c1c[nH]c2ncc(Cl)c(C3CC3)c12` (stereo not shown) [Compound 198, 3-(5-chloro-4-cyclopropyl-1H-pyrrolo[2,3-b]pyridin-3-yl)-1-(5-hydroxy-2-azatricyclo[3.3.1.1^3,7]dec-2-yl)butan-1-one], the concentration for half-maximal inhibition (IC50) was less than 100 nM.

In the case of `CC(CC(=O)N1C2CC3CC1CC(O)(C3)C2)c1c[nH]c2ncc(C3CC3)c(C3CC3)c12` (stereo not shown) [Compound 201, 3-(4,5-dicyclopropyl-1H-pyrrolo[2,3-b]pyridin-3-yl)-1-(5-hydroxy-2-azatricyclo[3.3.1.1^3,7]dec-2-yl)butan-1-one], the 50% inhibitory concentration (IC50) was more than 250 nM.

Take `CC(CC(=O)N1C2CC3CC1CC(O)(C3)C2)c1nc2ccc(Cl)cc2[nH]1` (stereo not shown) [Compound 202, 3-(6-chloro-1H-benzimidazol-2-yl)-1-(5-hydroxy-2-azatricyclo[3.3.1.1^3,7]dec-2-yl)butan-1-one]: the IC50 was more than 250 nM.

Regarding `Cc1cccc2c1c(C(C)CC(=O)N1C3CC4CC1CC(O)(C4)C3)cn2C1CC1` (stereo not shown) [Compound 205, 3-(1-cyclopropyl-4-methyl-1H-indol-3-yl)-1-(5-hydroxy-2-azatricyclo[3.3.1.1^3,7]dec-2-yl)butan-1-one], the half-inhibitory concentration (IC50) was more than 250 nM.

For `Cc1cccc2c1c(C(C)CC(=O)N1C3CC4CC1CC(O)(C4)C3)cn2C` (stereo not shown) [Compound 206, 3-(1,4-dimethyl-1H-indol-3-yl)-1-(5-hydroxy-2-azatricyclo[3.3.1.1^3,7]dec-2-yl)butan-1-one], the IC50 was more than 250 nM.

For the compound `CC(CC(=O)N1C2CC3CC1CC(O)(C3)C2)c1cn(C)c2cccc(Cl)c12` (stereo not shown) [Compound 207, 3-(4-chloro-1-methyl-1H-indol-3-yl)-1-(5-hydroxy-2-azatricyclo[3.3.1.1^3,7]dec-2-yl)butan-1-one], the 50% inhibitory concentration (IC50) was 100 to 150 nM.

Consider `CC(CC(=O)N1C2CC3CC1CC(O)(C3)C2)c1c[nH]c2ccc(-c3ccco3)c(Cl)c12` (stereo not shown) [Compound 208, 3-[4-chloro-5-(furan-2-yl)-1H-indol-3-yl]-1-(5-hydroxy-2-azatricyclo[3.3.1.1^3,7]dec-2-yl)butan-1-one], for which the IC50 fell in the range of 100 to 150 nM.

As to `COc1c(C)ccc2[nH]cc(C(C)CC(=O)N3C4CC5CC3CC(O)(C5)C4)c12` (stereo not shown) [Compound 209, 1-(5-hydroxy-2-azatricyclo[3.3.1.1^3,7]dec-2-yl)-3-(4-methoxy-5-methyl-1H-indol-3-yl)butan-1-one], the IC50 lay in the range of 200 to 250 nM.

Turning to `Cc1ccc2c(c1Cl)C(C(C)CC(=O)N1C3CC4CC1CC(O)(C4)C3)C(=O)N2` (stereo not shown) [Compound 211, 4-chloro-3-[4-(5-hydroxy-2-azatricyclo[3.3.1.1^3,7]dec-2-yl)-4-oxobutan-2-yl]-5-methyl-1,3-dihydro-2H-indol-2-one], the half-inhibitory concentration (IC50) fell in the range of 150 to 200 nM.

Turning to `CC(CC(=O)N1C2CC3(O)CC1CC(F)(C2)C3)c1c[nH]c2cccc(C3CC3)c12` (stereo not shown) [Compound 213, 3-(4-cyclopropyl-1H-indol-3-yl)-1-(5-fluoro-7-hydroxy-2-azatricyclo[3.3.1.1^3,7]dec-2-yl)butan-1-one], the IC50 is 100 to 150 nM.

As for `CC(CC(=O)N1C2CC3CC1CC(CC(=O)O)(C3)C2)c1c[nH]c2cccc(-c3ccc(F)o3)c12` (stereo not shown) [Compound 215, 2-(2-(3-(4-(5-fluorofuran-2-yl)-1H-indol-3-yl)butanoyl)-2-azaadamantan-5-yl)acetic acid], the half-inhibitory concentration (IC50) is more than 250 nM.

For `Cc1cccc2c1c(C(C)CC(=O)N1C3CC4CC1CC(O)(C4)C3)cn2S(=O)(=O)c1cccc2cccnc12` (stereo not shown) [Compound 216, 1-(5-hydroxy-2-azaadamantan-2-yl)-3-(4-methyl-1-(quinolin-8-ylsulfonyl)-1H-indol-3-yl)butan-1-one], the half-inhibitory concentration (IC50) was more than 250 nM.

As to `Cc1ccc2[nH]cc(C(C)CC(=O)N3C4CC5(C)CC3CC(O)(C4)C5)c2c1Cl` (stereo not shown) [Compound 219, 3-(4-chloro-5-methyl-1H-indol-3-yl)-1-(5-hydroxy-7-methyl-2-azaadamantan-2-yl)butan-1-one], the concentration for half-maximal inhibition (IC50) was less than 100 nM.

On to `CC(CC(=O)N1C2CC3CC1CC(O)(C3)C2)c1c(C#N)[nH]c2cccc(C3CC3)c12` (stereo not shown) [Compound 220, 4-cyclopropyl-3-(4-(5-hydroxy-2-azaadamantan-2-yl)-4-oxobutan-2-yl)-1H-indole-2-carbonitrile], for which the IC50 was more than 250 nM.

For `Cc1ccc2[nH]cc(C(C)CC(=O)N3C4CC5CC3CC(C#N)(C5)C4)c2c1C` (stereo not shown) [Compound 221, 2-(3-(4,5-dimethyl-1H-indol-3-yl)butanoyl)-2-azaadamantane-5-carbonitrile], the IC50 was more than 250 nM.

Take `CC(CC(=O)N1C2CC3CC1CC(C(=O)O)(C3)C2)c1c[nH]c2cccc(-c3ccco3)c12` (stereo not shown) [Compound 222, 2-(3-(4-(furan-2-yl)-1H-indol-3-yl)butanoyl)-2-azaadamantane-5-carboxylic acid]: the IC50 is more than 250 nM.

Take `COc1ccc2[nH]cc(C(C)CC(=O)N3C4CC5CC3CC(F)(C5)C4)c2c1` (stereo not shown) [Compound 224, 1-(5-fluoro-2-azaadamantan-2-yl)-3-(5-methoxy-1H-indol-3-yl)butan-1-one]: the IC50 was more than 250 nM.
